Data from patent publication US20260364057A1, “AMIDE COMPOUND, AND COMPOSITION AND USE THEREOF” (SIMCERE ZAIMING PHARMACEUTICAL CO., LTD., priority 2022, published 2026).
pIC50: −log10 of the molar value.

What follows are compounds tested against T1, Human KIF18A (1-376aa) (Homo sapiens, UniProt Q8NI77) (assay: KIF18A enzyme activity assay (ADP-Glo)). Settings: microtubule 50 μg/mL, ATP (Km 70 μM), room temperature, 15 min, read-out: KIF18A inhibitory activity IC50.
T1 construct: Human KIF18A (1-376aa) protease used in the experiments; purchased Shanghai Panchao Biotechnology Co., Ltd
T1 sequence (Q8NI77 1-376): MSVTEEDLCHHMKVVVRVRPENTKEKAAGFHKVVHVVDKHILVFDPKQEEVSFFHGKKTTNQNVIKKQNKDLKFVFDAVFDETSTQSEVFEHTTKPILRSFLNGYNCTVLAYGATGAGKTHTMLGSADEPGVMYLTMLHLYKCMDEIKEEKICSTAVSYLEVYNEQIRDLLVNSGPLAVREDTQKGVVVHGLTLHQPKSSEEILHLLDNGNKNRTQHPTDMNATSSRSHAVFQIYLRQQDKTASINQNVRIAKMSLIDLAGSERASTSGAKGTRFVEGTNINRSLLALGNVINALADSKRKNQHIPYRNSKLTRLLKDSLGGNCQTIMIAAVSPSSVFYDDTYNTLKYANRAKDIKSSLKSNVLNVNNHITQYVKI
Type: biochemical
Procedure: Test Example 1: KIF18A Enzyme Activity Assay
Based on the ADP-Glo™ Kinase Assay, the ADP amount generated in the reaction was detected to reflect the enzyme activity of KIF18A.
Human KIF18A (1-376aa) […] used in the experiments, expressed by Shanghai Panchao Biotechnology Co., Ltd., was stored at −80 °C (no more than 5 freeze-thaw cycles).
The assay kit (ADP-Glo™ Kinase Assay) was purchased from Promega (Cat. No. V9101) and stored at −30 °C. The kit detects the enzyme activity by measuring ADP generated in enzyme reaction. The KIF18A enzyme and ATP generate ADP. The remaining ATP in this reaction is consumed by the ADP-Glo reagent, while the ADP generated by the KIF18A enzyme reaction is converted back to ATP by the assay reagent. The ATP then reacts with luciferin in the presence of Ultra-Glo™ luciferase, producing luminescence. The luminescent signal is positively correlated with the activity of the KIF18A enzyme.
Compounds were each subjected to 3-fold serial dilution starting from 10 μM to obtain 10 concentration points. The compounds and pure DMSO (control) were pipetted into wells of a 384-well plate using an Echo instrument, and the total volume of compound and DMSO was 100 nL; sample concentrations of gradient dilution were obtained by the instrument based on different ratios. Preparation of a KIF18A enzyme reaction buffer: […], 10 mM MgCl2, 0.01% Pluronic F-68, 1 μM Taxol, and 50 μg/mL Microtubule. KIF18A and the enzyme reaction buffer were mixed, and then the mixed solution was added to the 384-well plate and incubated at room temperature for 15 min. ATP (Km 70 μM) was then added to the mixed solution, and the mixed solution was incubated at room temperature for 15 min. 10 μL of ADP-Glo™ Reagent was well mixed with 10 μL of the mixed solution, and the mixture was incubated at room temperature for 40 min. Finally, 20 μL of ADP-Glo™ Detection Reagent was added, and the mixture was incubated at room temperature for 30 min. The chemiluminescent signal in each well was measured using an Envision plate reader (PerkinElmer, emission wavelength: 400-700 nm). In the experiment, 1 column of wells with no compound and no enzyme (chemiluminescence value was taken as [RLU]background) and 1 column of wells with enzyme but no compound (chemiluminescence value was taken as [RLU]enzyme) were provided. The chemiluminescence value of the compound adding group was taken as [RLU]cpd. The inhibition rate of the compound on […] was calculated according to the following equation: inhibition rate (%)=([RLU]enzyme−[RLU]cpd)/([RLU]enzyme−[RLU]background)×100%, and the inhibitory activity IC50 value of the compound on the enzyme activity was calculated using a four-parameter Logistic Model method. In the following equation, x represents the logarithmic form of the concentration of compound, and f (x) represents an effect value (inhibition rate of enzyme activity at the concentration): F(x)=(A+((B−A)/(1+((C/x)^D)))). A. B, C, and D are four parameters.

| Structure (SMILES) | pIC50 |
| --- | --- |
| Cn1c(N2CCC(F)(F)CC2)nc(NC(=O)c2ccc(NS(=O)(=O)CCO)cc2N2CCC3(CC2)CC3)cc1=O [Compound 2] | > 6.70 |
| Cc1nc2c(NC(=O)c3ccc(NS(=O)(=O)CCO)cc3N3CCC4(CC3)CC4)cccn2n1 [Compound 3] | > 6.70 |
| O=C(Nc1cccc2c1ccn2C1CCC1)c1ccc(NS(=O)(=O)CCO)cc1N1CCC2(CC1)CC2 [Compound 4] | > 6.70 |
| O=C(Nc1ccnc2c1ccn2CCC(F)(F)F)c1ccc(NS(=O)(=O)CCO)cc1N1CCC2(CC1)CC2 [Compound 5] | > 6.70 |
| CC(C)n1ccc2c(NC(=O)c3ccc(NS(=O)(=O)CCO)cc3N3CCC4(CC3)CC4)ccnc21 [Compound 6] | > 6.70 |
| Cc1ccnc2c(NC(=O)c3ccc(NS(=O)(=O)CCO)cc3N3CCC4(CC3)CC4)ccnc12 [Compound 7] | > 6.70 |
| O=C(Nc1cccc2c1oc1ccccc12)c1ccc(NS(=O)(=O)CCO)cc1N1CCC2(CC1)CC2 [Compound 8] | > 6.70 |
| Cc1nc2c(NC(=O)c3ccc(NS(=O)(=O)CCO)cc3N3CCC4(CC3)CC4)cccn2c1C [Compound 9] | > 6.70 |
| O=C(Nc1ccnc2c1OCC1CCCCN21)c1ccc(NS(=O)(=O)CCO)cc1N1CCC2(CC1)CC2 (stereo not drawn) [Compound 10] | > 6.70 |
| O=C(Nc1cc2nccn2c(OCCC(F)(F)F)n1)c1ccc(NS(=O)(=O)CCO)cc1N1CCC2(CC1)CC2 [Compound 13] | > 6.70 |
| Cn1ccc2ccc(NC(=O)c3ccc(NS(=O)(=O)CCO)cc3N3CCC4(CC3)CC4)nc21 [Compound 15] | > 6.70 |
| CN1CCc2ccc(NC(=O)c3ccc(NS(=O)(=O)CCO)cc3N3CCC4(CC3)CC4)nc21 [Compound 16] | > 6.70 |
| Cc1cc(NC(=O)c2ccc(NS(=O)(=O)CCO)cc2N2CCC3(CC2)CC3)c2nc3c(n2c1)CCCC3 [Compound 18] | > 6.70 |
| CN1CCOc2ccc(NC(=O)c3ccc(NS(=O)(=O)CCO)cc3N3CCC4(CC3)CC4)nc21 [Compound 19] | > 6.70 |
| O=C(Nc1cc2nccn2c(N2CCC3(CC2)CC3)n1)c1ccc(NS(=O)(=O)CCO)cc1N1CCC2(CC1)CC2 [Compound 20] | > 6.70 |
| O=C(Nc1cccc2c1nc1n2CCC1)c1ccc(NS(=O)(=O)CCO)cc1N1CCC2(CC1)CC2 [Compound 23] | > 6.70 |
| O=C(Nc1cccc2c1nc1n2CC(F)(F)CC1)c1ccc(NS(=O)(=O)CCO)cc1N1CCC2(CC1)CC2 [Compound 25] | > 6.70 |
| O=C(Nc1ccc2cc3n(c2n1)CCCC3)c1ccc(NS(=O)(=O)CCO)cc1N1CCC2(CC1)CC2 [Compound 26] | > 6.70 |
| C=Cc1cc2c(NC(=O)c3ccc(NS(=O)(=O)CCO)cc3N3CCC4(CC3)CC4)ccnc2n1C [Compound 27] | > 6.70 |
| Cc1cnc2c(NC(=O)c3ccc(NS(=O)(=O)CCO)cc3N3CCC4(CC3)CC4)snc2c1 [Compound 32] | > 6.70 |

| Structure (SMILES) | pIC50 |
| --- | --- |
| O=C(Nc1ccc(F)c2c1nc1n2CCCC1)c1ccc(NS(=O)(=O)CCO)cc1N1CCC2(CC1)CC2 [Compound 33] | > 6.70 |
| O=C(Nc1ccnc2c1nc1n2CCCC1)c1ccc(NS(=O)(=O)CCO)cc1N1CCC2(CC1)CC2 [Compound 36] | > 6.70 |
| O=C(Nc1cncc2c1nc1n2CCCC1)c1ccc(NS(=O)(=O)CCO)cc1N1CCC2(CC1)CC2 [Compound 43] | > 6.30 |
| O=C(Nc1cccc2c1nc1n2C2CC(C1)C2)c1ccc(NS(=O)(=O)CCO)cc1N1CCC2(CC1)CC2 [Compound 46] | > 6.70 |
| O=C(Nc1snc2cc3c(nc12)CCCC3)c1ccc(NS(=O)(=O)CCO)cc1N1CCC2(CC1)CC2 [Compound 52] | > 6.70 |
| CC(C)c1cnc2c(NC(=O)c3ccc(NS(=O)(=O)CCO)cc3N3CCC4(CC3)CC4)snc2c1 [Compound 57] | > 6.70 |
| COC1Cc2nc3c(NC(=O)c4ccc(NS(=O)(=O)CCO)cc4N4CCC5(CC4)CC5)cccc3n2C1 (stereo not drawn) [Compound 62] | > 6.70 |
| COC1CCn2c1nc1c(NC(=O)c3ccc(NS(=O)(=O)CCO)cc3N3CCC4(CC3)CC4)cccc12 (stereo not drawn) [Compound 63] | > 6.70 |
| O=C(Nc1cc2c(c(N3CCC(F)(F)CC3)n1)CCC2)c1ccc(NS(=O)(=O)CCO)cc1N1CCC2(CC1)CC2 [Compound 66] | > 6.30 |
| O=C(Nc1cccc2c1nc1n2C2CC2CC1)c1ccc(NS(=O)(=O)CCO)cc1N1CCC2(CC1)CC2 (stereo not drawn) [Compound 69] | > 6.70 |
| O=C(Nc1ccc(=O)n(C2=CCC(F)(F)CC2)n1)c1ccc(NS(=O)(=O)CCO)cc1N1CCC2(CC1)CC2 [Compound 75] | > 6.70 |
| Cc1cc(NC(=O)c2ccc(NS(=O)(=O)CCO)cc2N2CCC3(CC2)CC3)c2nc3n(c2n1)CCCCC3 [Compound 79] | > 6.70 |
| O=C(Nc1cccc2c1nc1n2CC2(CC2)C1)c1ccc(NS(=O)(=O)CCO)cc1N1CCC2(CC1)CC2 [Compound 84] | > 6.30 |
| O=C(Nc1cccc2c1nc1n2CCC12CC2)c1ccc(NS(=O)(=O)CCO)cc1N1CCC2(CC1)CC2 [Compound 85] | > 6.30 |
| CN1CCn2c(nc3c(NC(=O)c4ccc(NS(=O)(=O)CCO)cc4N4CCC5(CC4)CC5)cccc32)C1 [Compound 89] | > 6.30 |
| O=C(Nc1cccc2c1nc1n2C2CC2C1)c1ccc(NS(=O)(=O)CCO)cc1N1CCC2(CC1)CC2 (stereo not drawn) [Compound 90] | > 6.70 |
| O=C(Nc1cccc2c1nc1n2CCC2(CC2)C1)c1ccc(NS(=O)(=O)CCO)cc1N1CCC2(CC1)CC2 [Compound 91] | > 6.70 |
| O=C(Nc1cn(C2CC2)c(=O)c(N2CCC(F)(F)CC2)n1)c1ccc(NS(=O)(=O)CCO)cc1N1CCC2(CC1)CC2 [Compound 93] | > 6.70 |
| CC1(C)C2Cn3c(nc4c(NC(=O)c5ccc(NS(=O)(=O)CCO)cc5N5CCC6(CC5)CC6)cccc43)C21 (stereo not drawn) [Compound 95] | > 6.70 |
